In brackets after ≈: the same amount, converted by molar mass. Like-named read-outs stand apart in the source and are kept apart here.
Key:
[1] = tested on: isolates from peptidomimetic 1-exposed E. coli ATCC 25922 lineages; details: two biological replicates
Procedure: Continuous selection of resistance was performed for peptidomimetic 1 (Figure 1) and for the clinically relevant natural antimicrobial peptide, polymyxin B. A bacterial suspension of a single colony of E. coli ATCC 25922 was re-inoculated (10 µl) five times in unsupplemented MHB (990 µl). It was then re-inoculated in MHB supplemented with peptidomimetic 1 (ten lineages) or polymyxin B (ten lineages), and after ten re-inoculations at constant peptidomimetic or polymyxin B concentration, the concentrations were doubled. […] Four lineages grown in MHB with MilliQ water were included as control. Re-inoculations were performed twice a day, but were reduced to once a day when growth was slower as assessed by turbidity of the cultures. The total number of passages (supplemented with peptidomimetic/AMP) was 77 times equivalent to approx. 500 generations. For each increase in concentration the lineages were preserved as freezing stocks. Ten colony isolates were randomly selected from each lineage population at 32×MIC and preserved as freezing stocks.
MIC was determined by using the micro-dilution method according to guidelines of the Clinical and Laboratory Standards Institute. Peptidomimetic 1 and erythromycin 1∶2 serial dilutions were prepared from 1024 µg/mL stock solutions to give a final range of 512-0.5 µg/mL in the wells. Ampicillin 1∶2 serial dilutions were prepared from a 256 µg/mL stock solution to give a final range of 128-0.13 µg/mL in the wells. Polymyxin B and gentamicin 1∶2 serial dilutions were prepared from a 64 µg/mL stock solution to give a final range of 32-0.03 µg/mL in the wells.
The population lineages were tested for their susceptibility towards peptidomimetic 1, polymyxin B, gentamicin and ampicillin. Single-culture isolates selected from these populations were additionally tested against peptidomimetic 1, polymyxin B, erythromycin and the five reference AMPs. To estimate the level of cross-resistance to closely related peptidomimetics, MIC determinations were performed for peptidomimetics 2 and 3 (Figure 1) towards selected isolates. The bacterial suspensions were grown overnight in MHB at 37°C for determination of the population MIC, or individual isolates were grown overnight on non-selective BHI agar at 37°C. […] In all experiments, bacterial cells were suspended in 0.9% saline to give a turbidity of 0.13 at OD546 (approximately 1×10^8 CFU/mL) and diluted in MHB pH 7.4 to a final concentration of 5×10^5 CFU/mL in each well. Polypropylene plates (Nunc 442587) were used to minimize peptide binding, and the incubation time was 18–20 hours at 37°C. […] MIC was found in a minimum of two technical (population MIC) or biological (isolate MIC) replicates as the lowest concentration of the AMP or antibiotic where no visible growth was observed.

[2] = tested on: Escherichia coli ATCC 25922; type: cell-based; details: wild-type E. coli ATCC 25922; MHB pH 7.4, 5×10^5 CFU/mL, 37°C, 18–20 h
Procedure: All experiments were performed with Escherichia coli ATCC 25922. Stock cultures of the wild-type strain and lineage isolates were stored at –80°C in 4% (w/v) glycerol, 0.5% (w/v) glucose, 2% (w/v) skimmed milk powder and 3% (w/v) tryptone soy powder. Lineage populations were frozen at –80°C in 50% (w/v) glycerol. All experiments were performed at 37°C. Experiments were carried out in cation-adjusted Mueller Hinton II broth (MHB) (Becton Dickinson 212322) adjusted to pH 7.4 or in 1% (w/v) peptone (Becton Dickinson 211677) for MIC determination of natural AMPs. Brain Heart Infusion (BHI) (CM1135) with agar (VWR 20768.292) 1.5% as gelling agent was used throughout for colony plating.
MIC was determined by using the micro-dilution method according to guidelines of the Clinical and Laboratory Standards Institute. Peptidomimetic 1 and erythromycin 1∶2 serial dilutions were prepared from 1024 µg/mL stock solutions to give a final range of 512-0.5 µg/mL in the wells. Ampicillin 1∶2 serial dilutions were prepared from a 256 µg/mL stock solution to give a final range of 128-0.13 µg/mL in the wells. Polymyxin B and gentamicin 1∶2 serial dilutions were prepared from a 64 µg/mL stock solution to give a final range of 32-0.03 µg/mL in the wells. Also, 1∶2 serial dilutions of the AMPs KR-12, IsCTp, melittin and PEP-1-K were prepared from 64 µg/mL stock solutions to give a final range of 32-0.03 µg/mL in the wells; however this was performed in 1% peptone instead of in MHB since activity was drastically diminished in the latter (not shown).
The population lineages were tested for their susceptibility towards peptidomimetic 1, polymyxin B, gentamicin and ampicillin. Single-culture isolates selected from these populations were additionally tested against peptidomimetic 1, polymyxin B, erythromycin and the five reference AMPs. To estimate the level of cross-resistance to closely related peptidomimetics, MIC determinations were performed for peptidomimetics 2 and 3 (Figure 1) towards selected isolates. […]

Work on `CC(=O)N[C@@H](CCCCN)C(=O)N(CCC(=O)N[C@@H](CCCCN)C(=O)N(CCC(=O)N[C@@H](CCCCN)C(=O)N(CCC(=O)N[C@@H](CCCCN)C(=O)N(CCC(=O)N[C@@H](CCCCN)C(=O)N(CCC(=O)N[C@@H](CCCCN)C(=O)N(CCC(=O)N[C@@H](CCCCN)C(=O)N(CCC(=O)N[C@@H](CCCCN)C(=O)N(CCC(N)=O)[C@@H](C)c1ccccc1)[C@@H](C)c1ccccc1)[C@@H](C)c1ccccc1)[C@@H](C)c1ccccc1)[C@@H](C)c1ccccc1)[C@@H](C)c1ccccc1)[C@@H](C)c1ccccc1)[C@@H](C)c1ccccc1` [peptidomimetic 2] yielded an MIC ([1]; isolates 2–4 and 2–6 (shared values), mean when results varied) of 512 µg/mL (≈ 206 µM), an MIC ([1]; isolates 2–7, 2–9 and 2–10 (shared values), mean when results varied) of 512 µg/mL (≈ 206 µM) and an MIC ([1]; six of the ten isolates from lineage no. 5 (data point shared with wild type)) of 64 µg/mL (≈ 25.7 µM). The “wt MIC” value [2] was 64 µg/mL.
